Patent publication US20250090705A1, “STERILIZATION METHOD AND STERILIZATION DEVICE” (OSAKA UNIVERSITY, priority 2021, published 2025)
Where two headings read alike, the source gives them in different places.

What was measured:
[1] = cited from earlier work
[2] = cited from earlier work; remark: listed apart in the source
[3] = half-time of peroxynitric acid solution versus temperature; type: physicochemical; conditions: pH 2.9
Method: FIG. 10 is a graph showing half-time of a peroxynitric acid solution. As shown in the graph, the peroxynitric acid solution that has a lower temperature (which may be ambient temperature) has a longer half-time. For example, the peroxynitric acid solution that has pH of 2.9 has a half-time of 132 minutes at 2° C. of the temperature of the peroxynitric acid solution, has a half-time of 26 minutes at 10° C. of the temperature of the peroxynitric acid solution, has a half-time of 7.8 minutes at 20° C. of the temperature of the peroxynitric acid solution, has a half-time of 2 minutes at 30° C. of the temperature of the peroxynitric acid solution, and has a half-time of 0.6 minutes at 40° C. of the temperature of the peroxynitric acid solution. The half-time of the peroxynitric acid solution thus depends on temperature.

[4] = 1 atmospheric pressure, cited from earlier work
[5] = system: spore solution (Bacillus subtilis) on pig skin; experiment: sixth sterilization test, contaminated pig skin model, CFU assay; type: cell-based; conditions: peroxynitric acid solution 100 mM, approximately 0.3 L container, Bacillus subtilis spores
From the text: Subsequently, the following description will discuss, with reference to FIG. 8, a result of a sterilization test using the sterilization device 1 that generates peroxynitric acid gas by a nebulizer method. In the sterilization test shown in FIG. 8, with the aim of application to biological disinfection, a contaminated pig skin model was sterilized by the nebulizer method.
FIG. 8 is a graph showing a result of a sixth sterilization test using a contaminated pig skin model. A 10^6 CFU spore solution (Bacillus subtilis) was applied to pig skin that had been shaved, cleaned, and subjected to sterilization treatment in advance, and the pig skin was dried so as to be a contaminated model. Such a contaminated pig skin model was regarded as the sterilization target 22 and housed in the sterilization container 21 having a capacity of approximately 0.3 L. In so doing, a surface of the contaminated pig skin model was made perpendicular to a direction in which a gas containing the peroxynitric acid gas and the peroxynitric acid mist flowed. A molar concentration of the peroxynitric acid solution to be placed in the second container 12 was set to 100 mM. After the sterilization test, a stomachere was used to collect bacteria on not only a front surface but also a back surface of the contaminated pig skin model, and the CFU assay was carried out.

[6] = system: bacterial spores (Geobacillus stearothermophilu); experiment: third and fourth sterilization tests, large container (90 L), BI in sterilization bag, on-off test (turbidity of culture solution); type: cell-based; conditions: 90 L container, 10^6 CFU spores in glassine paper bag
Method: (§1) The following description will discuss, with reference to FIGS. 2 to 5, results of sterilization tests each using the sterilization device 1 that generates peroxynitric acid gas by a nebulizer method. Here, the sterilization tests were carried out with use of the sterilization device 1 that includes (i) the peroxynitric acid gas generation section 10, which is as illustrated in FIG. 1 and which generates the peroxynitric acid gas by a nebulizer method and (ii) the sterilization treatment section 20 in which the sterilization container 21 having a capacity of 90 L is used. The peroxynitric acid solution was used in an amount of approximately 15 mL per minute in the peroxynitric acid gas generation section 10. The peroxynitric acid mist and the peroxynitric acid gas in the sterilization container 21 were configured to be recirculated into the second container 12 instead of being discharged outside through the air outlet 24.
FIG. 4 is a table showing a result of a third sterilization test using a large container. FIG. 5 is a table showing a result of a fourth sterilization test using a large container. The BI is one in which 10^6 CFU bacterial spores (Geobacillus stearothermophilu) are supported on a stainless steel disk and the stainless steel disk is in the sterilization bag 23 made of glassine paper. […]

[7] = system: bacterial spores (Geobacillus stearothermophilu); experiment: first and second sterilization tests, large container (90 L), nebulizer method, BI in sterilization bag, CFU assay; type: cell-based; conditions: 90 L container, 10^5 CFU spores in glassine paper bag
Method: as §1
FIG. 2 is a graph showing a result of a first sterilization test using a large container. FIG. 3 is a graph showing a result of a second sterilization test using a large container. […]

[8] = system: bacterial spores (Geobacillus stearothermophilu); experiment: fifth sterilization test, small container (approximately 0.3 L), BI in sterilization bag, CFU assay, survival curves, D value; type: cell-based
From the text: Subsequently, the following description will discuss, with reference to FIGS. 6 and 7, a result of a sterilization test using the sterilization device 1 that generates peroxynitric acid gas by a nebulizer method. The capacity of the sterilization container 21 was as large as 90 L in the sterilization tests in FIGS. 2 to 5, whereas the capacity of the sterilization container 21 was as small as approximately 0.3 L in the sterilization test in FIGS. 6 and 7. The peroxide solution was used in an amount of approximately 3 mL per minute in the peroxynitric acid gas generation section 10. The peroxynitric acid gas in the sterilization container 21 is discharged outside through the air outlet 24 instead of being recirculated into the second container 12.
FIG. 6 is a graph showing a result of a fifth sterilization test using a small container. The BI is one in which 10^5 CFU bacterial spores (Geobacillus stearothermophilu) are supported on a stainless steel disk and the stainless steel disk is in the sterilization bag 23 made of glassine paper. […]
FIG. 7 is a table showing microbicidal activity determined from each of the survival curves S10, S100, S200, S600a, and S600b that are shown in FIG. 6. […] A D value [s] is a time which is calculated from a survival curve and at which the number of living microorganisms reaches 1/10. […]

[9] = peroxynitric acid solution 10 mM
[10] = peroxynitric acid solution 600 mM

O=[N+]([O-])O [Nitric acid, nitric acid]
pKa [1]: approximately −1.4 | vapor pressure ([2]; 20° C.): 6.4 kPa

O=S(=O)(O)O [Sulfuric acid, sulfuric acid]
vapor pressure ([2]; 25° C.): 0.0067 Pa

peroxynitric acid [peroxynitric acid solution]
half-time ([3]; 2° C.): 132 min | half-time ([3]; 10° C.): 26 min | half-time ([3]; 20° C.): 7.8 min | half-time ([3]; 30° C.): 2 min | half-time ([3]; 40° C.): 0.6 min | half-time ([4]; 4.55° C. (277.7 K)): 97 s | half-time ([4]; 24.85° C. (298 K)): 12 s | time in which the contaminated pig skin model was sterilized [5]: 3 min | time in which the BI was sterilized (on-off test) [6, 9]: 10 min | time in which the BI was sterilized (on-off test) [6, 10]: 1 min | time in which the BI was sterilized (living microorganisms equal to or lower than detection limit) [7, 9]: 3 min | time in which the BI was sterilized (living microorganisms equal to or lower than detection limit) [7, 10]: 1 min | microbicidal activity from survival curves ([8]; 10, 100, 200 and 600 mM, approximately 0.3 L container, 10^5 CFU spores, CFU assay): higher molar concentration achieves higher microbicidal activity | microbicidal activity 1/D (reciprocal of D value) ([8]; calculated from survival curves S10, S100, S200, S600a, S600b): proportional to the molar concentration

O=P(O)(O)O [phosphoric acid]
vapor pressure ([2]; 20° C.): 4 Pa
